# Experimental data as given in patent publication US10864200B2, “Stable formulations for immune-modulatory macrolides” (Roche Diagnostics Operations, Inc., priority 2017, dated 2020).
# Where “and” joins values, the source holds several entries; their conditions need not be identical. Equal values may be shown once. Read-outs that look alike come from different tables or passages of the source.
# How the values were obtained:
# [1] = Real-time stability (RTS) of everolimus in chlorhexidine-containing cell-free blood hemolysate, LC-MS/MS; type: physicochemical; conditions: for everolimus concentration: hemolysate with 0.024% chlorhexidine
# Protocol: (§1) A formulation was prepared by firstly hemolyzing human whole blood: Human EDTA whole blood of 5 donors was hemolyzed by a freeze-and-thaw cycle. After freezing the whole blood sample from each donor separately at −80° C. and thawing at room temperature, all samples were combined, mixed on a roller for at least 1 hour and then centrifuged for 15 minutes at 22° C. and 12000 g in order to remove fragments of hemolyzed blood cells potentially present. After the centrifugation, the upper section (approximately ⅘ of the whole volume) of the hemolyzed blood was used as hemolysate. Finally, chlorhexidine was added to the hemolysate to a concentration of 0.024%.
# (§2) For checking the RTS, the chlorhexidine-containing hemolysate was spiked from a highly concentrated stock solution of everolimus to approx. 100 ng/ml, and aliquots thereof were stressed at 6° C. for 3, 6, 9, 12, and 15 months respectively in brown LC-MS vials. The stressed samples and the corresponding non-stressed samples (T0 samples) were analyzed by LC-MS/MS measurements.
# LC-MS/MS method: Before performing the LC-MS/MS analysis, the samples were treated by addition of 10 μL isotope-labeled internal standards (d4/2×C13—everolimus) to 100 μL of the sample to be analyzed, followed by a protein precipitation by addition of 150 μL acetonitrile. The mixture was incubated at 4° C. for 60 minutes and then centrifuged (18000 g, 4° C., 30 min). The supernatant was diluted 1:4 with a solvent mixture of 30% acetonitrile and 70% water and then injected in the LC-MS/MS. The samples were quantified by an external calibration curve. The calibrator was a set of solutions with different concentrations of analyte and they were run through the same preparation workflow, with the same internal standard as the samples. For the calculation of the concentration in a sample, the response factors (ratio of analyte peak area and internal standard peak area) of the sample were referenced with the linear function of the calibration curve (ratio by concentration). The recovery value was the concentration measured at time point (Ti) compared to the non-stressed concentration at start time point (T0) as reference (see Table 3). Formulations with recoveries >90% were classified as stable.
# LC-MS/MS conditions were • Solvents: A: 0.5 mM NH4Acetate in H2O/B: Methanol • Gradient: according to Table 2. • AB Sciex 6500 QTRAP/Agilent HPLC 1290-Infinity • APCI source negative mode • Column: Phenomenex—Kinetex F5, 2.6 μm particle, 150 mm×2.1 mm • Temperature: 50° C. (Column) and 8° C. (Autosampler) • Injection volume 20 μL • Calibration: external, with 6 concentration levels covering 0-500 ng/mL • MRM Transition at DP: −76 V EP: −10 V CE: −30 V CXP: −24 V • Detection: everolimus: Q1: 956.6 Da Q3: 590.2 Da; everolimus d4,2×C13: Q1: 962.2 Da Q3: 590.2 Da.
# [2] = Real-time stability study of everolimus in hemolysate with NaN3 as additive; type: physicochemical; conditions: hemolysate with 0.009% sodium azide
# [3] = cited from earlier work
# [4] = known from literature; cited from earlier work
# [5] = Real-time stability (RTS) of sirolimus and tacrolimus in chlorhexidine-containing cell-free blood hemolysate, LC-MS/MS; type: physicochemical; conditions: for real-time stability demonstrated: 6° C., chlorhexidine-containing hemolysate formulation; for area-ratio (analyte / internal standard): hemolysate with 0.024% chlorhexidine
# Protocol: as §1
# as §2, with “sirolimus” for “everolimus”, “ng/mL or tacrolimus to approx. 135 ng/mL,” for “ng/ml,”, “3” for “3, 6, 9, 12, and 15”, “stored at 6° C. for a couple of days until their” for “analyzed by”, “analysis.” for “measurements.”
# LC-MS/MS method: Before performing the LC-MS/MS analysis the samples were prepared by addition of 10 μL structurally similar internal standards (everolimus D4 2×C13 for sirolimus and non-labeled ascomycin for tacrolimus) to 100 μL of the sample to be analyzed, followed by a protein precipitation by addition of 150 μL acetonitrile. The mixture was incubated at 4° C. for 60 minutes and then centrifuged (18000 g, 4° C., 30 min). The supernatant was 1:4 diluted with a solvent mixture of 30% acetonitrile and 70% deionized water and then injected in the LC-MS/MS. The recovery value was the found area-ratio at time point (T1) compared to the non-stressed area-ratio at start time point (T0) as reference (see table 5). Formulations with recoveries >90% were classified as stable and with 80-90% as acceptable.
# LC-MS/MS conditions were • Solvents: A: 5 mM NH4Acetate in H2O+0.1% Formic acid/ • B: Methanol+0.1% Formic acid • Gradient: according to Table 4. • AB Sciex Triple Quad 6500+/Agilent HPLC 1290-Infinity II • ESI source • Column: Phenomenex—Kinetex F5, 2.6 μm particle, 50 mm×2.1 mm • Temperature: 40° C. (Column) and 8° C. (Autosampler) • Injection volume 20 μL • MRM Transition at DP: 70 V EP: 10 V CXP: 12 V • Detection: everolimus: Q1: 975.7 Da Q3: 908.7 Da CE 25 V • everolimus d4,2×C13: Q1: 981.7 Da Q3: 914.7 Da CE 25 V • sirolimus: Q1: 931.7 Da Q3: 864.6 Da CE 25 V • tacrolimus: Q1: 821.5 Da Q3: 576.4 Da CE 33 V • ascomycin: Q1: 809.5 Da Q3: 564.4 Da CE 33 V
compound,measurement,setting,value
"CO[C@H]1C[C@@H]2CC[C@@H](C)[C@@](O)(O2)C(=O)C(=O)N2CCCC[C@H]2C(=O)O[C@H]([C@H](C)C[C@@H]2CC[C@@H](OCCO)[C@H](OC)C2)CC(=O)[C@H](C)/C=C(\C)[C@@H](O)[C@@H](OC)C(=O)[C@H](C)C[C@H](C)/C=C/C=C/C=C/1C [everolimus, (1R,9S,12S,15R,16E,18R,19R,21R,23S,24E,26E,28E,30S,32S,35R)-1,18-dihydroxy-12-[(2R)-1-[(1S,3R,4R)-4-(2-hydroxyethoxy)-3-methoxycyclohexyl]propan-2-yl]-19,30-dimethoxy-15,17,21,23,29,35-hexamethyl-11,36-dioxa-4-azatricyclo hexatriaconta-16,24,26,28-tetraene-2,3,10,14,20-pentone]",everolimus concentration,[1]; 3 months at 6° C.,71.1 ng/mL
same,everolimus concentration,[1]; 6 months at 6° C.,81.8 ng/mL
same,real-time stability demonstrated,"[1]; 6° C., chlorhexidine-containing hemolysate formulation",15 months
same,everolimus concentration,[1]; 9 months at 6° C.,74.6 ng/mL
same,everolimus concentration,[1]; 12 months at 6° C.,92.0 ng/mL
same,everolimus concentration,[1]; 15 months at 6° C.,77.8 ng/mL
same,everolimus concentration,"[1]; T0 (non-stressed), spiked approx. 100 ng/ml",74.8 ng/mL
same,measured value for stressed everolimus (unit not given),[2]; 3 months at 6° C.,0.732
same,measured value for stressed everolimus (unit not given),[2]; T0,0.781
same,Literature-provided stability of blood samples,"[3]; 2-8° C., 4° C.",7d/4 °C ^11
same,Literature-provided stability of blood samples,"[3]; >RT, 30° C. (in light)",7d/30 °C (in light) ^1
same,Literature-provided stability of blood samples,[3]; RT (in light),6h/RT (in light) ^4
same,aqueous solubility,[4],poor
"CO[C@H]1C[C@@H]2CC[C@@H](C)[C@@](O)(O2)C(=O)C(=O)N2CCCC[C@H]2C(=O)O[C@H]([C@H](C)C[C@@H]2CC[C@@H](O)[C@H](OC)C2)CC(=O)[C@H](C)/C=C(\C)[C@@H](O)[C@@H](OC)C(=O)[C@H](C)C[C@H](C)/C=C/C=C/C=C/1C [sirolimus, (1R,9S,12S,15R,16E,18R,19R,21R,23S,24E,26E,28E,30S,32S,35R)-1,18-dihydroxy-12-{(2R)-1-[(1S,3R,4R)-4-hydroxy-3-methoxycyclohexyl]-2-propanyl}-19,30-dimethoxy-15,17,21,23,29,35-hexamethyl-11,36-dioxa-4-azatricyclo hexatriaconta-16,24,26,28-tetraene-2,3,10,14,20-pentone]",real-time stability demonstrated,[5],3 months
same,Literature-provided stability of blood samples,"[3]; 2-8° C., 4° C. (dark & in light)",8d/4 °C
same,Literature-provided stability of blood samples,"[3]; 2-8° C., 4° C.",7d/4 °C ^11
same,Literature-provided stability of blood samples,"[3]; <0° C., −20 to −80° C.",1a/−20 to −80 °C ^3
same,Literature-provided stability of blood samples,"[3]; <0° C., −20° C.",3m/−20 °C ^1 and 6m/−20 °C ^11
same,Literature-provided stability of blood samples,"[3]; >RT, 30° C. (dark & in light)",8d/30 °C
same,Literature-provided stability of blood samples,"[3]; >RT, 30° C. (in light)",7d/30 °C (in light) ^1
same,Literature-provided stability of blood samples,[3]; RT,1d/RT ^11 and 1d/RT ^3
same,aqueous solubility,[4],poor
"C=CC[C@@H]1/C=C(\C)C[C@H](C)C[C@H](OC)[C@H]2O[C@@](O)(C(=O)C(=O)N3CCCC[C@H]3C(=O)O[C@H](/C(C)=C/[C@@H]3CC[C@@H](O)[C@H](OC)C3)[C@H](C)[C@@H](O)CC1=O)[C@H](C)C[C@@H]2OC [tacrolimus, (1R,9S,12S,13R,14S,17R,18E,21S,23S,24R,25S,27R)-1,14-dihydroxy-12-[(1E)-1-[(1R,3R,4R)-4-hydroxy-3-methoxycyclohexyl]prop-1-en-2-yl]-23,25-dimethoxy-13,19,21,27-tetramethyl-17-(prop-2-en-1-yl)-11,28-dioxa-4-azatricyclo octacos-18-ene-2,3,10,16-tetrone]",Recovery value (area-ratio at T1 compared to T0),[5]; 3 months at 6° C.,98%
same,area-ratio (analyte / internal standard),[5]; 3 months at 6° C.,0.972
same,real-time stability demonstrated,[5],3 months
same,area-ratio (analyte / internal standard),"[5]; T0 (non-stressed), sirolimus approx. 100 ng/mL, tacrolimus approx. 135 ng/mL",0.99
same,Recovery value (area-ratio at T1 compared to T0),[5]; T0 (reference),100%
same,Literature-provided stability of blood samples (in words),[3]; 1d/RT,not stable ^9
same,Literature-provided stability of blood samples,"[3]; <0° C., −70° C.",1a/−70 °C ^8
same,Literature-provided stability of blood samples,"[3]; >RT, 37° C.",3d/37 °C ^7
same,Literature-provided stability of blood samples,[3]; RT,14d/RT ^8 and 7d/RT ^7
same,aqueous solubility,[4],poor
